Measurements published in patent publication US9085642B2, “Peptide inhibiting rankl-rank interaction and the use thereof” (RESEARCH & BUSINESS FOUNDATION SUNGKYUNKWAN UNIVERSITY, priority 2013, dated 2015).
“Also recorded” adds a separate entry of the source. Bridge positions count the residues as written; N and C are the ends. Ends that are not written are not given here.

Tested on: osteoclast precursors
Test: Osteoclast differentiation by RANKL, TRAP assay and count of TRAP-positive multinucleated cells
Format: cell-based, rat
Conditions: RANKL-induced differentiation, peptides treated by concentrations, TRAP assay, FIGS. 6B and 7
Experimental: That is, osteoclast precursors of rats were extracted from tibia and the femoral region of 5 to 8-week male rats, and purified. The osteoclast precursors were cultured in α-MEM containing 30 ng/ml of M-CSF and 10% FBS in 96-well plates (1×10^5/ml, 200 μl/well). The cells were cultured at 37° C. in a wet atmosphere containing 5% CO2. Differentiation of the osteoclast precursors were measured by a value of tartrate-resistant acid phosphatase (TRAP) activity in vitro. The TRAP staining assay was performed using a matrix Naphthol AS phosphate in 100 mM sodium acetate (pH 5.2). TRAP-positive multinucleated cells were calculated as osteoclast-like multinucleated cells using a microscope, and the assay described above were repeated three times to obtain statistical data.
In the condition of differentiating osteoclasts by the RANKL, 5 peptides (L3-3, L3-3S, L3-3N, L3-3A, and L3-3B) manufactured in Example 5 were treated by concentrations to observe a degree of inhibition, and the results are shown in FIGS. 6 and 7.

Ser-Asp-Cys-Glu-Cys-Ser-Arg-Arg (SDCECSRR; disulfide 3-5) [L3-3B]
inhibitory effect on osteoclast differentiation: better effects than conventionally disclosed peptides (L3-3 and L3-3S); also recorded: extraordinarily higher inhibitory effect than L3-3A
